In patent US20210070748A1, “INHIBITORS OF BRUTONS TYROSINE KINASE” (Pharmacyclics LLC, priority 2015, published 2021):

Key:
[1] = molecular target: T1, BTK-WT (Homo sapiens, UniProt Q06187); experiment: Btk in vitro inhibitory activity (one of Method A TR-FRET, Method B electrophoretic mobility shift, Method C radiometric filter binding); type: biochemical; details: D-compounds panel data; read-out: IC50 BTK-WT
T1 construct: purified from insect cells as a full-length construct containing an N-terminal 6X-His tag; His6 (N); made in house; host or cells: insect cells (baculovirus Sf21 in Method B)
T1 sequence (Q06187 whole entry): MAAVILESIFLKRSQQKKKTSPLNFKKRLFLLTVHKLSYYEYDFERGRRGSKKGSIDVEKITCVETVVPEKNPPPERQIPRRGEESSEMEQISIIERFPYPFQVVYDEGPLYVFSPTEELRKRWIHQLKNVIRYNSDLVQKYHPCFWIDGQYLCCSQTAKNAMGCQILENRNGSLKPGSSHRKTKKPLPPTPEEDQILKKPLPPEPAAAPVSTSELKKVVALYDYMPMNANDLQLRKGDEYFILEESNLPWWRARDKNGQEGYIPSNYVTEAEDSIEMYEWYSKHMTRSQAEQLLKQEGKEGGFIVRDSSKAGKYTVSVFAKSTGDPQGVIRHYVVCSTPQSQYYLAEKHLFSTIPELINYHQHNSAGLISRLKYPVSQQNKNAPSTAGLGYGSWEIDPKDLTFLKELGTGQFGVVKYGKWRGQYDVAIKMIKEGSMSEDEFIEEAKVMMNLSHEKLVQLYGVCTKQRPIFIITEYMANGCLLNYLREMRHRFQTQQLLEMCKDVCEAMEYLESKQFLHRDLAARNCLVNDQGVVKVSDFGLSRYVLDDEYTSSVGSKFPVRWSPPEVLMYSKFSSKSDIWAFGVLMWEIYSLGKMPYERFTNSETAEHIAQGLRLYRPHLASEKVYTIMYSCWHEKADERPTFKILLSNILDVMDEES

[2] = molecular target: EGFR (Homo sapiens, UniProt P00533); experiment: Inhibition of a panel of kinases, in vitro HotSpot kinase assay: EGFR; type: biochemical; details: D-compounds panel data; 1 μM ATP
Sequence of EGFR (P00533 25-1210): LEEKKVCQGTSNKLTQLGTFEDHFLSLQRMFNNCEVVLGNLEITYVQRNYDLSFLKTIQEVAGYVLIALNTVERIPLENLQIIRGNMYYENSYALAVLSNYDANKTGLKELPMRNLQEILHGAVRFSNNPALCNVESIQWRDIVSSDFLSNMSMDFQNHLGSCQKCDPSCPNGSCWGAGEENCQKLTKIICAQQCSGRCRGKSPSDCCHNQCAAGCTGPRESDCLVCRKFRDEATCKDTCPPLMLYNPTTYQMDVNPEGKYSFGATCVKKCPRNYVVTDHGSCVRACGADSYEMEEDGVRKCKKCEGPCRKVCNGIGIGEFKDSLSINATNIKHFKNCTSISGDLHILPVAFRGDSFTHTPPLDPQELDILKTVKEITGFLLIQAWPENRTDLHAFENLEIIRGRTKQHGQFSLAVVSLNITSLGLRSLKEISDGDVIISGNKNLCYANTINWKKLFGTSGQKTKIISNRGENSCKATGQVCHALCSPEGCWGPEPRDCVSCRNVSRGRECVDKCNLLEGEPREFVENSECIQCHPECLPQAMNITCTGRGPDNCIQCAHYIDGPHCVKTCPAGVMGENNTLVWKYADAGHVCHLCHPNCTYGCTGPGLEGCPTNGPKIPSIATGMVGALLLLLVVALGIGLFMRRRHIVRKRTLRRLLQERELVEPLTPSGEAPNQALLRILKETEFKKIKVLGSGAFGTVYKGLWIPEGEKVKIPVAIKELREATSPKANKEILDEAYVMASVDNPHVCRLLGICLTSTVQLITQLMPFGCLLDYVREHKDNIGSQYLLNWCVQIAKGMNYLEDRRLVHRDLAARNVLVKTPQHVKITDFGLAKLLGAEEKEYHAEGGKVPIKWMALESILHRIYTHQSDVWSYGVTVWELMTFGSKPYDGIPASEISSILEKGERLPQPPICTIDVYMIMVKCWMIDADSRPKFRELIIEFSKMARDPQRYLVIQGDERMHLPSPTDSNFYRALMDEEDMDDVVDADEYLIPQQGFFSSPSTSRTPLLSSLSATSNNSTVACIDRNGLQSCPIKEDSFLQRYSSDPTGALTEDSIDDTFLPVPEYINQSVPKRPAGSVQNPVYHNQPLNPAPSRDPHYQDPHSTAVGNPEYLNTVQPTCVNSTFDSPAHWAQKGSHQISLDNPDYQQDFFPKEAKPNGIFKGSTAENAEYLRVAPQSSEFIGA
Procedure: The degree of inhibition of a panel of kinases is determined using the in vitro HotSpot kinase assay (purified enzymes, ^33P-ATP, an appropriate substrate and 1 μM ATP).

Row | IC50 [1] [nM] | IC50 [2] [nM] | SMILES
1 | ≤ 10 | 100 to 1000 | C[C@@H]1[C@H](NC(=O)c2ccc(C(C)(C)O)c(F)c2)CCCN1c1cnc(C(N)=O)c(Nc2cnn(C)c2)n1 [Example D-160, 5-[(2R,3R)-3-[3-fluoro-4-(2-hydroxypropan-2-yl)benzamido]-2-methylpiperidin-1-yl]-3-[(1-methyl-1H-pyrazol-4-yl)amino]pyrazine-2-carboxamide]
2 | ≤ 10 | 100 to 1000 | C[C@@H]1[C@H](NC(=O)c2ccc(C3CC3)cc2)CCCN1c1cnc(C(N)=O)c(Nc2ccc(N3CCN(C)CC3)c(F)c2)n1 [Example D-146, 5-[(2R,3R)-3-(4-cyclopropylbenzamido)-2-methylpiperidin-1-yl]-3-{[3-fluoro-4-(4-methylpiperazin-1-yl)phenyl]amino}pyrazine-2-carboxamide]
3 | ≤ 10 | 1000 to 10000 | C[C@H]1CC[C@@H](NC(=O)c2ccc(C(C)(C)O)cc2)CN1c1nnc(C(N)=O)c(Nc2cnn(C)c2)n1 [Example D-157, 3-[(2S,5R)-5-[4-(2-hydroxypropan-2-yl)benzamido]-2-methylpiperidin-1-yl]-5-[(1-methyl-1H-pyrazol-4-yl)amino]-1,2,4-triazine-6-carboxamide]
4 | 100 to 1000 | > 10000 | C[C@H]1CC[C@H](NC(=O)c2ccc(C3CC3)cc2)CN1c1cnc(C(N)=O)c(Nc2cnn(C)c2)n1 [Example D-144, 5-[(2S,5S)-5-(4-cyclopropylbenzamido)-2-methylpiperidin-1-yl]-3-[(1-methyl-1H-pyrazol-4-yl)amino]pyrazine-2-carboxamide]
5 | 100 to 1000 | 1000 to 10000 | C[C@@H]1[C@H](NC(=O)c2ccc(C3CC3)cc2F)CCCN1c1cnc(C(N)=O)c(Nc2ccn(C)n2)n1 [Example D-129, 5-[(2R,3R)-3-(4-cyclopropyl-2-fluorobenzamido)-2-methylpiperidin-1-yl]-3-[(1-methyl-1H-pyrazol-3-yl)amino]pyrazine-2-carboxamide]
6 | 10 to 100 | > 10000 | C[C@@H]1[C@H](NC(=O)c2ccc(C3CC3)cc2F)CCCN1c1cnc(C(N)=O)c(Nc2ccc3ncccc3c2)n1 [Example D-114, 5-[(2R,3R)-3-(4-cyclopropyl-2-fluorobenzamido)-2-methylpiperidin-1-yl]-3-[(quinolin-6-yl)amino]pyrazine-2-carboxamide]

Continued, compound first:

Row | SMILES | IC50 [1] [nM] | IC50 [2] [nM]
7 | Cc1cccc(-c2cnc(C3CCCN(c4cnc(C(N)=O)c(Nc5cnn(C)c5)n4)C3)[nH]2)c1 [Example D-148, 3-[(1-methyl-1H-pyrazol-4-yl)amino]-5-{3-[5-(3-methylphenyl)-1H-imidazol-2-yl]piperidin-1-yl}pyrazine-2-carboxamide] | 10 to 100 | 1000 to 10000
8 | C[C@@H]1[C@H](NC(=O)N(C)C)CCCN1c1cnc(C(N)=O)c(Nc2ccc(OC3CCN(C4CCCC4)CC3)cc2)n1 [Example D-102, 3-({4-[(1-cyclopentylpiperidin-4-yl)oxy]phenyl}amino)-5-[(2R,3R)-3-[(dimethylcarbamoyl)amino]-2-methylpiperidin-1-yl]pyrazine-2-carboxamide] | ≤ 10 | 100 to 1000
9 | CN(C)c1ccc2c(=O)n([C@@H]3CCCN(c4cnc(C(N)=O)c(Nc5cnn(C)c5)n4)C3)ccc2c1 [Example D-155, 5-[(3R)-3-[6-(dimethylamino)-1-oxo-1,2-dihydroisoquinolin-2-yl]piperidin-1-yl]-3-[(1-methyl-1H-pyrazol-4-yl)amino]pyrazine-2-carboxamide] | ≤ 10 | 1000 to 10000
10 | C[C@@H]1[C@H](NC(=O)c2ccc(C3CC3)cc2F)CCCN1c1cnc(C(N)=O)c(Nc2ccc3cccnc3c2)n1 [Example D-124, 5-[(2R,3R)-3-(4-cyclopropyl-2-fluorobenzamido)-2-methylpiperidin-1-yl]-3-[(quinolin-7-yl)amino]pyrazine-2-carboxamide] | 10 to 100 | > 10000
